Read-outs that look alike come from different tables or passages of the source.
Key:
HT29 = assay: MTT assay, HT29 cells; assay type: cell-based, human; settings: for IC50: Homo sapiens, HT-29, means of four experiments
Method: (§1) The human colorectal adenocarcinoma (Caco-2), human colorectal adenocarcinoma (HT29), normal human intestinal (I407), human cervical cancer (HeLa), human breast cancer (MCF7), human bone osteosarcoma (U2OS), and human acute T-cell leukemia (Jurkat J6) cell lines were purchased from American Type Culture Collection (ATCC, Manassas, VA, USA). Cells were cultured in RPMI 1640 medium (Labtek Eurobio, Milan, Italy), supplemented with 10% FCS (Euroclone, Milano, Italy) and 2 mM L-glutamine (Sigma-Aldrich, Milano, Italy), at 37 °C and in a 5% CO2 atmosphere. The compounds were dissolved in DMSO in a 30–40 mM stock solution. In cell treatments, the final DMSO concentration never exceeded 0.1%.
(§2) Cells were seeded in a 96-well culture plastic plate (Sarsted, Milan, Italy), at 5 × 10^4 cells/well and, after 24 h, were exposed to increasing concentrations of the different compounds (from 1 nM to 500 nM) dissolved in RPMI 1640 medium. An MTT assay was performed according to Micheletti et al..
(§3) The absorbance at 570 nm was measured using a multi-well plate reader (Tecan, Männedorf, Switzerland), and data were analyzed by Prism GraphPad 8 software and expressed as IC50 nM.

HeLa = assay: MTT assay, HeLa cells; assay type: cell-based; settings: Homo sapiens, means of four experiments, na = not active, read-out: In vitro cytotoxic activity (IC50), HeLa
Method: as §1, §2, §3

U2OS = assay: MTT assay, U2OS cells; assay type: cell-based; settings: Homo sapiens, means of four experiments, na = not active, read-out: In vitro cytotoxic activity (IC50), U2OS
Method: as §1, §2, §3

HCT116 = assay: MTT assay, HCT116 cells; assay type: cell-based, human
Method: as §2, with “Micheletti et” left out, “al.. The absorbance at 570 nm was measured using a multi-well plate reader (Tecan, Männedorf, Switzerland), and data were analyzed by Prism GraphPad 8 software and expressed as IC50 nM.” for “al..”

[1] = system: human tumor cell lines (HT29, MCF-7, HeLa, U2OS, and J6); assay: Antiproliferative activity in the series of human tumor cell lines; assay type: cell-based; settings: MTT; concentration range of 10–500 nM
Method: as §1, §2, §3

HT29 cells [2] = assay: Cell cycle analysis by flow cytometry (PI); assay type: cell-based, human; settings: 50 nM, 24 h
Method: HT29 cells were treated with compound 4 for 24 h and then detached with 0.11% trypsin/0.02% ethylenediaminetetraacetic acid (EDTA) (Sigma-Aldrich, St. Louis, MO, USA), washed in PBS, and centrifuged. Cells were stained and analyzed according to […] al..

HT29 cells [3] = assay: Cellular content of total magnesium (DCHQ5 assay); assay type: cell-based, human; settings: 24 h treatment
Method: To evaluate the total magnesium, the fluorimetric DCHQ5 assay was performed according to Nature Protocol. Briefly, the cells were washed in PBS without Mg and Ca three times, accurately counted, and sonicated at 100 W. A standard curve was prepared with a concentration of MgCl2 between 0.5 and 5 µM in buffer MOPS 2 mM in 50% MetOH. The fluorescent probe DCHQ5 15 µM was added, and the fluorescence was recorded on a PTI Quanta Master C60/2000 spectrofluorometer (Photon Technology International, Inc., Birmingham, NJ, USA). A total of 200 µL of the samples was diluted in the MOPS MetOH buffer, DCHQ5 15 µM was added, and the fluorescence was recorded. The amount of Mg was evaluated by interpolating the fluorescence of the sample with respect to the standard curve expressed as nmoles of magnesium/10^6 cells.

HT29 cells [4] = assay: Western blot of γH2AX (DNA damage); assay type: cell-based, human; settings: 50 nM, 6 h
Method: HT29 were seeded at a density of 1.5 × 10^4 cell/cm^2 in a Petri dish and, after 24 h, treated for 6 h with 50 nM of compound 4. Cells were harvested, and histones were extracted by previously isolated nuclei according to […] al.. The proteins were resolved on a 10% gel in MES buffer at 200 V for 35 min and immunoblotted with mouse anti-acetylated lysines (Millipore, Billerica, MA, USA) or rabbit anti-γH2Ax (Santa Cruz Biotechnology, Dallas, TX, USA) primary antibodies. The membranes were developed with Clarity Western ECL Substrate (Bio-Rad, Hercules, CA, USA) after incubation with mouse or rabbit secondary horseradish peroxidase-conjugated antibody (GE Healthcare, Chicago, IL, USA). SDS-PAGE was stained with Coomassie Brilliant Blue R-250 (Bio-Rad, Hercules, CA, USA), while densitometric analyses were performed using a Fluor-S Max MultiImager (Bio-Rad, Hercules, CA, USA), and relative quantification of histone acetylation and histone H2Ax phosphorylation signals were normalized to the H1 signal as a control.

HT29 cells [5] = assay: Neutral lipid staining (LipidTOX), confocal microscopy; assay type: cell-based, human; settings: 50 nM, 48 h
Method: HT29 cells were grown on glass coverslips, treated as described above, and then washed three times with PBS. The intracellular accumulation of neutral lipids was assessed using LipidTOX™ Red Neutral Lipid Dye (Thermo Fisher Scientific, Waltham, MA, USA) according to the manufacturer’s indications. Specimens embedded in Mowiol were analyzed by confocal microscopy using a Nikon C1si confocal microscope (Nikon, Tokyo, Japan). Fluorescence was excited with a laser tuned at 595 nm, and detected at 650 nm.

CCCCCCCCC[C@H](CCCCCCCC(=O)O)O[Si](C)(C)C(C)(C)C [Compound 4, (R)-9-((tert-butyldimethylsilyl)oxy)octadecanoic acid]
IC50 (HT29; MTT after 24 h of treatment, read-out: IC50 nM, HT29 (Table 2)): 20.9 ± 0.21 nM | IC50 (HT29; MTT, na = not active, read-out: In vitro cytotoxic activity (IC50), HT29): 20.3 ± 0.24 nM | S.I. (Selective Index), HT29 (HT29; versus normal I407 cells): 2.96 | IC50 (HeLa): 166.1 ± 0.33 nM | IC50 (U2OS): 36.81 ± 0.18 nM | IC50 (HCT116; Homo sapiens, HCT-116, MTT after 24 h of treatment, means of four experiments): 21.49 ± 0.16 nM | S.I. (Selective Index), HCT116 (HCT116; versus normal I407 cells): 2.88 | antitumor activity across all cell lines tested [1]: showed antitumor activity | decrease in G2/M phase (HT29 cells [2]): 80.3 ± 6.1% | decrease in S phase (HT29 cells [2]): 66.4 ± 8.9% | increase in the G0/G1 phase (HT29 cells [2]): 41.8 ± 0.2% | reduction in the Mg content (HT29 cells [3]): −40% | changes in the γH2AX marker (HT29 cells [4]): does not induce any changes | accumulation of lipid droplets (neutral lipids) (HT29 cells [5]): significantly reduces
